Converted amounts (≈) assume the structure as drawn.
Details: buffer; pH 7.4; 200.0 µM

| solubility kinetic [µg/mL] | SMILES |
| --- | --- |
| 33.2 (≈ 105 µM) | COCc1c(C(=O)OCc2c(C)noc2C)oc2ccccc12 |
| 6.1 (≈ 22 µM) | O=C(Nc1ccc2c(c1)OCO2)c1cc(Cl)ccn1 |
| 0.8 (≈ 2.59 µM) | O=C(NC1CCCCC1)c1cccc(OCc2ccccc2)c1 |
| > 52.6 | CN(Cc1ccccc1)C(=O)CN(C)S(=O)(=O)c1ccc(F)cc1 |
| 43.2 (≈ 142 µM) | O=C(NCc1cccnc1)C12CC3CC(CC(Cl)(C3)C1)C2 |
| 11.4 (≈ 45.5 µM) | Oc1ccccc1-c1cncn1Cc1ccccc1 |
| 0.4 (≈ 1.29 µM) | CSc1c(CC(=O)Nc2ccccc2)n(C)c2ccccc12 |
| 26.7 (≈ 112 µM) | O=C(Nc1ccc(Cl)cc1)Nc1ccon1 |
| 22.8 (≈ 127 µM) | Nc1nc(C(F)(F)F)cc(=O)[nH]1 |
| > 34.5 | Cc1cccc(C)c1NC(=O)N1CC=CCC1 |
| 16.2 (≈ 75.6 µM) | O=C(Nc1ccccc1)Nc1cnccn1 |
| 10.7 (≈ 48.4 µM) | C(=C\c1ccco1)/c1ccc2ccccc2n1 |
| 35.6 (≈ 139 µM) | O=C(Nc1ccncc1)c1ccc2ncsc2c1 |
| > 44.1 | Cc1cc(S(=O)(=O)NCC2CC2)c(Cl)cc1Cl |
| 71.3 (≈ 131 µM) | Cc1noc(NS(=O)(=O)c2ccc(NC(=O)c3cccc(S(=O)(=O)Nc4ccccc4F)c3)cc2)c1C |
| > 42.8 | O=C1CSC(c2ccccc2O)N1Cc1ccccc1 (centres undefined) |
| > 45.9 | COc1cccc(NC(=O)c2ccccc2Br)c1 |
| 4.2 (≈ 15.6 µM) | COc1ccc2cc(C#N)c(N3CCOCC3)nc2c1 |
| < 0.3 | O=C(Nc1cccc2ccccc12)NC1Cc2ccccc2C1 |

| solubility kinetic [µg/mL] | SMILES |
| --- | --- |
| 34.1 (≈ 131 µM) | CCNc1c([N+](=O)[O-])c(=O)n(CC)c2ccccc12 |
| 22.9 (≈ 53.9 µM) | CCc1sc(C(=O)Nc2ccc(OC)c(S(=O)(=O)N3CCOCC3)c2)cc1C |
| > 61.7 | O=C(Cc1ccc([N+](=O)[O-])cc1)NC(C(=O)[O-])C(O)c1cccc([N+](=O)[O-])c1.[Na+] (centres undefined) |
| 32.8 | CN(C)CCN(C(=O)c1ccc2ccccc2c1)c1nc2c(F)cc(F)cc2s1.Cl |
| < 0.6 | COc1ccc(OC)c(-c2csc(-c3cccs3)n2)c1 |
| 2.1 (≈ 7.92 µM) | Cc1cccc(NC(=O)/C(C#N)=C/c2ccc[nH]2)c1C |
| > 45.4 | COc1ccccc1-c1nc2cc(Cl)ccc2c(=O)n1O |
| > 52.8 | CCCN1CCN(C(=O)CCCNC(=O)c2ccc(Cl)cc2)CC1 |
| 28.6 (≈ 102 µM) | Cc1ccc2cc(NC(=O)c3cccc(F)c3)ccc2n1 |
| 3.1 (≈ 12 µM) | Cc1ccc(NC(=S)Nc2ccccn2)c(C)c1 |
| > 51.5 | COC(c1ccccc1)c1nnc(CCC(=O)NC2CCCCC2)o1 (centres undefined) |
| > 48.3 | CC(C)C(O)(C#CCN1CCCCCC1)c1ccccc1.Cl (centres undefined) |
| > 35.1 | O=[N+]([O-])c1cccnc1Oc1ccccc1F |
| 37.5 (≈ 141 µM) | Cc1c(C(=O)NC2=NCCS2)cccc1[N+](=O)[O-] |
| 44.3 (≈ 135 µM) | O=C(O)C1C2CCC(O2)C1C(=O)Nc1ccc(OC(F)F)cc1 (centres undefined) |
| 30.1 (≈ 119 µM) | O=C(CCN1CCOCC1)Nc1ccc(F)cc1 |
| 33.6 (≈ 105 µM) | Oc1c(CN2CCCCC2)cc(Br)c2cccnc12 |
| 46.5 (≈ 143 µM) | CCN(C(=S)NC(=O)c1ccco1)c1cccc2ccccc12 |
| > 52 | COc1ccc(C(=O)NCC(=O)OCC(=O)NCc2ccco2)cc1 |

| solubility kinetic [µg/mL] | SMILES |
| --- | --- |
| > 38.2 | CCc1nnc(SCC(=O)NC2CC2)n1CC |
| 42.3 (≈ 132 µM) | O=[N+]([O-])c1cc(NCCO)c(N2CCCCCC2)c2nonc12 |
| 43.6 (≈ 139 µM) | COC(=O)Nc1cc(C(=O)c2ccc(Cl)cc2Cl)c[nH]1 |
| 6 (≈ 19.8 µM) | CCC(C)c1ccccc1NC(=S)NC(=O)c1ccco1 (centres undefined) |
| 11.3 (≈ 38.5 µM) | CCOC(=O)c1csc(COc2ccc(OC)cc2)n1 |
| > 41.6 | COc1cc(Nc2ncnc(N)n2)cc(OC)c1OC |
| 10.8 (≈ 36.3 µM) | COc1ccccc1NC(=O)C(=O)/C=C(\O)c1ccccc1 |
| 53.8 (≈ 141 µM) | Cc1ccc(NS(=O)(=O)c2ccc(C(=O)NCc3ccccn3)cc2)cc1 |
| < 0.7 | Cc1ccc(-c2ccc(S(=O)(=O)N3CC(C)OC(C)C3)cc2)cc1 (centres undefined) |
| 0.7 (≈ 2.14 µM) | COc1ccc(OC)c(NC(=O)NC2CCCc3ccccc32)c1 (centres undefined) |
| > 51.6 | O=C(COC(=O)c1ccc(Br)o1)NCC1CCCCC1 |
| 47.7 (≈ 131 µM) | Cc1ccccc1C(=O)NC1CCN(CC(=O)NCc2ccccc2)CC1 |
| > 40.9 | CC1CCCCC1NC(=O)COc1ccccc1C#N (centres undefined) |
| 47.3 (≈ 144 µM) | Cc1ccc(NC(=O)COC(=O)C2C3CC4OC(=O)C2C4C3)cc1 (centres undefined) |
| 20.1 (≈ 59 µM) | CC(CCc1ccccc1)NC(=O)CN1CCSc2ccccc21 (centres undefined) |
| 42.5 (≈ 120 µM) | CC(C)S(=O)(=O)C/C(N)=N/OS(=O)(=O)c1ccc(Cl)cc1 |
| > 41.9 | Cc1nc(SCC(=O)N2CCCC2=O)nc(C)c1C |
| > 32.9 | O=C(O)C1=C(Nc2ccccc2)OCC1=O |
| 3.1 (≈ 11.1 µM) | Cc1cccc(NC(=O)c2cc(=O)[nH]c3ccccc23)c1 |

| SMILES | solubility kinetic [µg/mL] |
| --- | --- |
| O=C(O)C(=O)O.c1ccc2c(c1)CCN(C1CCCCC1)C2 | 44 |
| O=C1NS(=O)c2cc([N+](=O)[O-])cc([N+](=O)[O-])c21 (centres undefined) | > 38.6 |
